# Measurements published in PMC2797363, “Discovery of Novel Proteasome Inhibitors Using a High-Content Cell-Based Screening System” (PLoS ONE, 2009).
# Molecular target: T1, 26S proteasome (chymotryptic activity, LLVY-AMC; β5 subunit) (Oryctolagus cuniculus, UniProt G1T4Q9)
# T1 construct: gene PSMB5; purified 26S proteasomes from rabbit muscle; with other subunits of the 26S proteasome
# T1 sequence (G1T4Q9 60-263): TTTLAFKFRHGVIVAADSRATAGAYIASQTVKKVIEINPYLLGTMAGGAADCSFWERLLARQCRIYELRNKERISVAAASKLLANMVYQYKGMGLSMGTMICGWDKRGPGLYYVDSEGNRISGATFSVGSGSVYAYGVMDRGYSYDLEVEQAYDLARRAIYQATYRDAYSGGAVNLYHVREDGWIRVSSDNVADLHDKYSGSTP
# Assay: Suc-LLVY-AMC fluorogenic hydrolysis by purified 26S proteasome, 30 μM compound
# Assay type: biochemical
smiles,measurement,value
"Cn1c(=S)c2[nH]c(SCCN3C(=O)c4ccccc4C3=O)nc2n(C)c1=O [NSC99671, 2-[2-[(1,3-dimethyl-2-oxo-6-sulfanylidene-7H-purin-8-yl)sulfanyl]ethyl]isoindole-1,3-dione]","Suc-LLVY-AMC fluorogenic hydrolysis by purified 26S proteasome, 30 μM compound",NSC99671 displayed a moderate inhibitory effect
